Results reported in the kinase profiling compilation of Christmann-Franck et al. (2016).

Key:
Assay in all cases: KINOMEscan competition binding
Settings in all cases: compound 10.0 µM
ZAP70 (human) = ZAP70 (human) (UniProt P43403)
PLK1 (human) = PLK1 (human) (UniProt P53350)
MAPK12 (human) = MAPK12 (human) (UniProt P53778)
BMPR1A (human) = BMPR1A (human) (UniProt P36894)
BRSK2 (human) = BRSK2 (human) (UniProt Q8IWQ3)
TEC (human) = TEC (human) (UniProt P42680)
BMPR1B (human) = BMPR1B (human) (UniProt O00238)
FGFR4 (human) = FGFR4 (human) (UniProt P22455)
MAP3K5 (human) = MAP3K5 (human) (UniProt Q99683)
EPHA3 (human) = EPHA3 (human) (UniProt P29320)
EPHA3 (human), sequence (P29320 whole entry, looked up): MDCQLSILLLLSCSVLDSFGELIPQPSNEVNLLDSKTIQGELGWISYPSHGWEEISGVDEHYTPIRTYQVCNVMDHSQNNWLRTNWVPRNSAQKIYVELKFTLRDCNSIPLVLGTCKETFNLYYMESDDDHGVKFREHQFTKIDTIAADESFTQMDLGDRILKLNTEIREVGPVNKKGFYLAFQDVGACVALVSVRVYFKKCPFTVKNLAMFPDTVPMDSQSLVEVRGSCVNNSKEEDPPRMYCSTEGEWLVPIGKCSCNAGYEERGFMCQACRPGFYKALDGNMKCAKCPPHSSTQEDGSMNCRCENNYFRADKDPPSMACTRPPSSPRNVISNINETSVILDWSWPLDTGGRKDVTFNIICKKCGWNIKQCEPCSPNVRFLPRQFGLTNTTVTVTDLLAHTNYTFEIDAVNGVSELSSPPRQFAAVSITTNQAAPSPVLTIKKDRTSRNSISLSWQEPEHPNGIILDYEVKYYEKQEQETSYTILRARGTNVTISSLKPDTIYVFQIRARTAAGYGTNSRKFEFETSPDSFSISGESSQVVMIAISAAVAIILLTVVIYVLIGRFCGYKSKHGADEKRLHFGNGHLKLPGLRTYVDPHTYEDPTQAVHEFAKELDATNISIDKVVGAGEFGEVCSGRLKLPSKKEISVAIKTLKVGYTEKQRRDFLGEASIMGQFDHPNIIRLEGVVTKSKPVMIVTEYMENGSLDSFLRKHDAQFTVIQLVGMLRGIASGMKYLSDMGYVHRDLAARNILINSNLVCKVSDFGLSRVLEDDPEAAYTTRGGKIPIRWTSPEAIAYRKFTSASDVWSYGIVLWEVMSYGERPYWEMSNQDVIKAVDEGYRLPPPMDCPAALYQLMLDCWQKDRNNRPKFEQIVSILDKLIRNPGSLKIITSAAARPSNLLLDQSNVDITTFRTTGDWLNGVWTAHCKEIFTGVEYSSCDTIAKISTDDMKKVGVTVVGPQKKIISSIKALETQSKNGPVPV

MAP2K5 (human) = MAP2K5 (human) (UniProt Q13163)
CDK13 (human) = CDK13 (human) (UniProt Q14004)
MAPK4 (human) = MAPK4 (human) (UniProt P31152)
FLT4 (human) = FLT4 (human) (UniProt P35916)
PIK3CA (human) = PIK3CA (human) (UniProt P42336)
CPK1 (P.falciparum) = tested on: CPK1 (P.falciparum)
CDC2L2 (human) = CDC2L2 (human) (UniProt Q9UQ88)
TNIK (human) = TNIK (human) (UniProt Q9UKE5)
CDK4 CCND3 (human) = CDK4 CCND3 (human) (UniProt P11802+P30281)
PAK1 (human) = PAK1 (human) (UniProt Q13153)
CLK1 (human) = CLK1 (human) (UniProt P49759)
STK11 (human) = STK11 (human) (UniProt Q15831)
STK11 (human), sequence (Q15831 whole entry, looked up): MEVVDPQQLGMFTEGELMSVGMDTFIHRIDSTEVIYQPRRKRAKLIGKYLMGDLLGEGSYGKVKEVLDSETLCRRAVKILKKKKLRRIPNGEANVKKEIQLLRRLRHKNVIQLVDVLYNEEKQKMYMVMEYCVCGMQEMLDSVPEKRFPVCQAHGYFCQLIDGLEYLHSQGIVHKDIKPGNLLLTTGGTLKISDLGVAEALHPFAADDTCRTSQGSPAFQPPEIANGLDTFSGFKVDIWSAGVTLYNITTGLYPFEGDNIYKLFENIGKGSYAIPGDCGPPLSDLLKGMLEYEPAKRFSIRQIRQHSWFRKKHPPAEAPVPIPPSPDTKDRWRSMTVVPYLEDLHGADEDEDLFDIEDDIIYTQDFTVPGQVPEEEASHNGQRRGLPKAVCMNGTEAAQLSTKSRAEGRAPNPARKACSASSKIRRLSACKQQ

HIPK1 (human) = HIPK1 (human) (UniProt Q86Z02)
DAPK3 (human) = DAPK3 (human) (UniProt O43293)
AXL (human) = AXL (human) (UniProt P30530)
RET (human) = RET (human) (UniProt P07949)
MAPK7 (human) = MAPK7 (human) (UniProt Q13164)
PTK6 (human) = PTK6 (human) (UniProt Q13882)
PRKAA2 (human) = PRKAA2 (human) (UniProt P54646)
MYLK3 (human) = MYLK3 (human) (UniProt Q32MK0)
EPHA7 (human) = EPHA7 (human) (UniProt Q15375)
PRKAA1 (human) = PRKAA1 (human) (UniProt Q13131)
KDR (human) = KDR (human) (UniProt P35968)
PHKG2 (human) = PHKG2 (human) (UniProt P15735)
PLK2 (human) = PLK2 (human) (UniProt Q9NYY3)
PIK3CG (human) = PIK3CG (human) (UniProt P48736)
MAP3K10 (human) = MAP3K10 (human) (UniProt Q02779)
TIE1 (human) = TIE1 (human) (UniProt P35590)
CIT (human) = CIT (human) (UniProt O14578)
CIT (human), sequence (O14578 whole entry, looked up): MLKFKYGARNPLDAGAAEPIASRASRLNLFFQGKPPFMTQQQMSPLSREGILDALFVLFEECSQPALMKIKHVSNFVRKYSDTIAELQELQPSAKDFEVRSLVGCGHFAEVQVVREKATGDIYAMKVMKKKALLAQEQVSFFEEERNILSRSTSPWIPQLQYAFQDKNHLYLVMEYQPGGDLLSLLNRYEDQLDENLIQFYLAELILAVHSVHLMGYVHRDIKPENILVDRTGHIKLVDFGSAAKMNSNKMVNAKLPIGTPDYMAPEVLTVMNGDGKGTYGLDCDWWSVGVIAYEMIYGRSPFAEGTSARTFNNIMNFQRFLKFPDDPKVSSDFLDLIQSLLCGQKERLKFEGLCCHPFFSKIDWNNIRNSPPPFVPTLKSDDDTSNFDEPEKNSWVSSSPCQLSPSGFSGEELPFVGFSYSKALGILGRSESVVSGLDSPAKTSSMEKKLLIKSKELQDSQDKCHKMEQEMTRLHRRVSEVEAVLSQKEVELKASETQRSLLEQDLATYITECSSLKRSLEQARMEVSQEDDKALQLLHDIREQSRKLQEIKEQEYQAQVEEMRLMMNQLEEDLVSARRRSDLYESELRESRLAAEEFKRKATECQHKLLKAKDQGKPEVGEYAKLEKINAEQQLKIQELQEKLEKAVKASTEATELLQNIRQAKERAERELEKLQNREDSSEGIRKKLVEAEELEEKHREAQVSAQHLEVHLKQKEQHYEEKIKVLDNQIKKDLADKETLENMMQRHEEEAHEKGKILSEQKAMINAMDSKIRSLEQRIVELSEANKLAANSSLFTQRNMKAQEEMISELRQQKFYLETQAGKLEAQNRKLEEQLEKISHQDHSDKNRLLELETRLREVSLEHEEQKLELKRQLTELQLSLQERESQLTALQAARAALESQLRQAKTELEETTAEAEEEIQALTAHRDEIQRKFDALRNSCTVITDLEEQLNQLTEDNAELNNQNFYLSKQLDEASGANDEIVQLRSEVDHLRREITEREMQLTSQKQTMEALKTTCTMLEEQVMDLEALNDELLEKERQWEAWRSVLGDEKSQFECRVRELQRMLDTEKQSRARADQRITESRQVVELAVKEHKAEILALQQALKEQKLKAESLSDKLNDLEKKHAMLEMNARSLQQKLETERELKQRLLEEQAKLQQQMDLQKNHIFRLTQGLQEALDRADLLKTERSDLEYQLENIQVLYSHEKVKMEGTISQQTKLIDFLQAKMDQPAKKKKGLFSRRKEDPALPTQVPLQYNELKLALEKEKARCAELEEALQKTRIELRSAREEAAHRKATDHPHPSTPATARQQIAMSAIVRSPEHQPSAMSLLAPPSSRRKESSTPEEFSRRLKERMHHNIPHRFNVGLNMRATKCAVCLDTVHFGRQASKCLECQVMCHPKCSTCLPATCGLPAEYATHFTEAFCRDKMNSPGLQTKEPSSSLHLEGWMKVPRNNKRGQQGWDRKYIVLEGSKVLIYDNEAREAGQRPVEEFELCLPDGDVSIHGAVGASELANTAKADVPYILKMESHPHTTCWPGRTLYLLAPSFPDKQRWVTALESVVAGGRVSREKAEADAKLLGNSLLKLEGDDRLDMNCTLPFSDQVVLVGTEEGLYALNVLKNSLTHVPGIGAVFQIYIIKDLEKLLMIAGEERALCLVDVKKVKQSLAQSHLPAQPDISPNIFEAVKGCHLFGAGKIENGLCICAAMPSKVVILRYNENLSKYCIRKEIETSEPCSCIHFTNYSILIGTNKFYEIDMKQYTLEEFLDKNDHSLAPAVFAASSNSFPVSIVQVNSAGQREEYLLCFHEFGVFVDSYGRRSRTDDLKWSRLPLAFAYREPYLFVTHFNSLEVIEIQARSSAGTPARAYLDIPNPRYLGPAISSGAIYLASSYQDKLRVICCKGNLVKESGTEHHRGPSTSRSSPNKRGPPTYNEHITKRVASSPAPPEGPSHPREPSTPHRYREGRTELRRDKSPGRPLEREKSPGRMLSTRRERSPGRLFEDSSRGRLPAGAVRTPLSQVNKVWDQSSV

MAP4K5 (human) = MAP4K5 (human) (UniProt Q9Y4K4)
ADCK3 (human) = ADCK3 (human) (UniProt Q8NI60)

BRSK2 (human), sequence (Q8IWQ3 whole entry, looked up): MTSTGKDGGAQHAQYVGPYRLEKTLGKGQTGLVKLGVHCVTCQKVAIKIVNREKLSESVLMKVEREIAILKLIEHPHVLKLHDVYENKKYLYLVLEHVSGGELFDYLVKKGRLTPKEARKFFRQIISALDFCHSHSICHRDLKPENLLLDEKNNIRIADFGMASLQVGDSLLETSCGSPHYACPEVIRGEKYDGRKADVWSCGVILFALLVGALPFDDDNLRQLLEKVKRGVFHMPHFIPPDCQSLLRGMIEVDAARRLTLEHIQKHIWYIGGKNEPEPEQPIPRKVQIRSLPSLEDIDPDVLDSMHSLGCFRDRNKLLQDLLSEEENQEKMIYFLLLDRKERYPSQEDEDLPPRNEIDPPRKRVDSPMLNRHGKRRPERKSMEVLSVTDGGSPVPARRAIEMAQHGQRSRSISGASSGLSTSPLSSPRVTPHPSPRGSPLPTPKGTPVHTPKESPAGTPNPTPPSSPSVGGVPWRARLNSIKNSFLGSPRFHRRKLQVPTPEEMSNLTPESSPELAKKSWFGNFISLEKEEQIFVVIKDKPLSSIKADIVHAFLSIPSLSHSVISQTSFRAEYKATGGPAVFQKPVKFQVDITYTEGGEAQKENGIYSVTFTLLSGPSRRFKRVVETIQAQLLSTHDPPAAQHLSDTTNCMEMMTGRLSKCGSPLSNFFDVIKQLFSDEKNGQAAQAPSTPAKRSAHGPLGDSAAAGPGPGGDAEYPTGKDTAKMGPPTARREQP
MAPK12 (human), sequence (P53778 whole entry, looked up): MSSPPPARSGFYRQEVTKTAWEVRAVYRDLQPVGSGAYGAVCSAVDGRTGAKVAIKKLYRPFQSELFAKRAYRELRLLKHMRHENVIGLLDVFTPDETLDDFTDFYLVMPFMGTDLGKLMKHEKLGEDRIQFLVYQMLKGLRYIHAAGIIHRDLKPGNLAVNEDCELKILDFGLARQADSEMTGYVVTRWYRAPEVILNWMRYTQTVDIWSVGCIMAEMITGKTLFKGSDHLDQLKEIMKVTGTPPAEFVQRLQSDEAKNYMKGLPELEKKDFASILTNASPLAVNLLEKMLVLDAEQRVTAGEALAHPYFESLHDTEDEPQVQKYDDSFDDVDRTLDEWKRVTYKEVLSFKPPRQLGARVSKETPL
BMPR1A (human), sequence (P36894 whole entry, looked up): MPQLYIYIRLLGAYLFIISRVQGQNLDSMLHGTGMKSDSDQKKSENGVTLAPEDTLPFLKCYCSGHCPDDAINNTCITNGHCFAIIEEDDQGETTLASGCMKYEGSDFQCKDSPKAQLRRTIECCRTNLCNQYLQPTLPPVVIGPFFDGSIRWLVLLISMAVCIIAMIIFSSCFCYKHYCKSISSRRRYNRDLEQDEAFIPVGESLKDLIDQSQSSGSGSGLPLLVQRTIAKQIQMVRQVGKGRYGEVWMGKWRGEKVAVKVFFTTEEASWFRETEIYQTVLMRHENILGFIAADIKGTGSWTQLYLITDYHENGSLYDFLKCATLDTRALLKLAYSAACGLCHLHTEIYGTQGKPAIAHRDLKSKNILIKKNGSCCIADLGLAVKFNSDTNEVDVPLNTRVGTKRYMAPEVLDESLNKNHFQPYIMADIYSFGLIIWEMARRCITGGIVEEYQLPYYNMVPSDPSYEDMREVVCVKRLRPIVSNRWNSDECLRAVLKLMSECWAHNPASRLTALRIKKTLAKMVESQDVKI

With `C=CC(=O)Nc1cc(-n2c(=O)ccc3cnc4ccc(-c5cn[nH]c5)cc4c32)ccc1C` the kinase still bound, per cent of control (ZAP70 (human)) was 48%, the kinase still bound, per cent of control (PLK1 (human)) was 80% and the kinase still bound, per cent of control (MAPK12 (human)) was 98%. The kinase still bound, per cent of control (BMPR1A (human)) was 12%, the kinase still bound, per cent of control (BRSK2 (human)) was 67% and the kinase still bound, per cent of control (TEC (human)) was 6%. For the same compound, the kinase still bound, per cent of control (BMPR1B (human)) was 73%, the kinase still bound, per cent of control (FGFR4 (human)) was 100% and the kinase still bound, per cent of control (MAP3K5 (human)) was 100%. The kinase still bound, per cent of control (EPHA3 (human)) was 100%, the kinase still bound, per cent of control (MAP2K5 (human)) was 0.3% and the kinase still bound, per cent of control (CDK13 (human)) was 100%. The kinase still bound, per cent of control (MAPK4 (human)) was 100%, the kinase still bound, per cent of control (FLT4 (human)) was 65% and the kinase still bound, per cent of control (PIK3CA (human)) was 24%. For the same compound, the kinase still bound, per cent of control (CPK1 (P.falciparum)) was 11%, the kinase still bound, per cent of control (CDC2L2 (human)) was 100% and the kinase still bound, per cent of control (TNIK (human)) was 47%. It also gave a kinase still bound, per cent of control (CDK4 CCND3 (human)) of 87%, a kinase still bound, per cent of control (PAK1 (human)) of 100% and a kinase still bound, per cent of control (CLK1 (human)) of 0.4%. The kinase still bound, per cent of control (STK11 (human)) was 100%, the kinase still bound, per cent of control (HIPK1 (human)) was 52% and the kinase still bound, per cent of control (DAPK3 (human)) was 61%. For the same compound, the kinase still bound, per cent of control (AXL (human)) was 100%, the kinase still bound, per cent of control (RET (human)) was 55% and the kinase still bound, per cent of control (MAPK7 (human)) was 98%. It also gave a kinase still bound, per cent of control (PTK6 (human)) of 100%, a kinase still bound, per cent of control (PRKAA2 (human)) of 78% and a kinase still bound, per cent of control (MYLK3 (human)) of 100%. For the same compound, the kinase still bound, per cent of control (EPHA7 (human)) was 99%, the kinase still bound, per cent of control (PRKAA1 (human)) was 96% and the kinase still bound, per cent of control (KDR (human)) was 50%. For the same compound, the kinase still bound, per cent of control (PHKG2 (human)) was 79%, the kinase still bound, per cent of control (PLK2 (human)) was 89% and the kinase still bound, per cent of control (PIK3CG (human)) was 4.2%. The kinase still bound, per cent of control (MAP3K10 (human)) was 100%, the kinase still bound, per cent of control (TIE1 (human)) was 100% and the kinase still bound, per cent of control (CIT (human)) was 42%. For the same compound, the kinase still bound, per cent of control (MAP4K5 (human)) was 93% and the kinase still bound, per cent of control (ADCK3 (human)) was 91%.
Compound `O=C(Nc1cccc(Nc2ncc(Br)c(NCCc3cnc[nH]3)n2)c1)N1CCCC1` has a kinase still bound, per cent of control (ZAP70 (human)) of 7.1%, a kinase still bound, per cent of control (PLK1 (human)) of 41% and a kinase still bound, per cent of control (MAPK12 (human)) of 65%. For the same compound, the kinase still bound, per cent of control (BMPR1A (human)) was 0.8%, the kinase still bound, per cent of control (BRSK2 (human)) was 5.8% and the kinase still bound, per cent of control (TEC (human)) was 47%. The kinase still bound, per cent of control (BMPR1B (human)) was 0%, the kinase still bound, per cent of control (FGFR4 (human)) was 1.8% and the kinase still bound, per cent of control (MAP3K5 (human)) was 24%. The kinase still bound, per cent of control (EPHA3 (human)) was 21%, the kinase still bound, per cent of control (MAP2K5 (human)) was 0.6% and the kinase still bound, per cent of control (CDK13 (human)) was 0.35%. It also gave a kinase still bound, per cent of control (MAPK4 (human)) of 3.2%, a kinase still bound, per cent of control (FLT4 (human)) of 0.05% and a kinase still bound, per cent of control (PIK3CA (human)) of 100%. The kinase still bound, per cent of control (CPK1 (P.falciparum)) was 3.8%, the kinase still bound, per cent of control (CDC2L2 (human)) was 52% and the kinase still bound, per cent of control (TNIK (human)) was 0.8%. For the same compound, the kinase still bound, per cent of control (CDK4 CCND3 (human)) was 0.35%, the kinase still bound, per cent of control (PAK1 (human)) was 36% and the kinase still bound, per cent of control (CLK1 (human)) was 13%. For the same compound, the kinase still bound, per cent of control (STK11 (human)) was 3.2%, the kinase still bound, per cent of control (HIPK1 (human)) was 1.2% and the kinase still bound, per cent of control (DAPK3 (human)) was 4%. It also gave a kinase still bound, per cent of control (AXL (human)) of 1.2%, a kinase still bound, per cent of control (RET (human)) of 0.1% and a kinase still bound, per cent of control (MAPK7 (human)) of 62%. For the same compound, the kinase still bound, per cent of control (PTK6 (human)) was 45%, the kinase still bound, per cent of control (PRKAA2 (human)) was 0.5% and the kinase still bound, per cent of control (MYLK3 (human)) was 0.1%. For the same compound, the kinase still bound, per cent of control (EPHA7 (human)) was 44%, the kinase still bound, per cent of control (PRKAA1 (human)) was 0.35% and the kinase still bound, per cent of control (KDR (human)) was 1.8%. For the same compound, the kinase still bound, per cent of control (PHKG2 (human)) was 8.9%, the kinase still bound, per cent of control (PLK2 (human)) was 11% and the kinase still bound, per cent of control (PIK3CG (human)) was 58%. The kinase still bound, per cent of control (MAP3K10 (human)) was 0%, the kinase still bound, per cent of control (TIE1 (human)) was 2.2% and the kinase still bound, per cent of control (CIT (human)) was 0.75%. It also gave a kinase still bound, per cent of control (MAP4K5 (human)) of 9.6% and a kinase still bound, per cent of control (ADCK3 (human)) of 100%.
